Data on 6 molecules can be found in patent publication US6455516B1, “Method and compounds for use in the treatment of steroid induced states of the central nervous system” (priority 1998, dated 2002).

Assay [1] deals with slices from hippocampal CA1 region. Nature of the assay: Hippocampus slice in vitro model: induced population spike (POPSP) over the synapse in area CA1. To be noted: for Blocking of the effect of 3alpha-hydroxy-5alpha-pregnan-20-one on the signal/POPSP / Blocking of the effect of 3alpha-hydroxy-5beta-pregnan-20-one on the signal/POPSP: given simultaneously, equimolar dose in the nM range; for Effect on the signal transmitted over the synapse / amplitude of the POPSP: steroid alone. It counts as cell-based, rat. The text has this:
In another preliminary study, the hippocampus slice model in the female rat of the luteal phase was used. This corresponds to the phase in humans when most of CNS effects are noticed in women with epilepsy and premenstrual syndrome.
In the hippocampus slice in vitro model the effect of steroids on an electrical signal over the synapse in the area CA1 was investigated. The stimulation is on one side of the synapse and a measurement of the response is made on the other side. A small droplet containing the steroid can be placed on top of the synapse and thus influence the synaptic transmission. Secondly a steroid can also be dissolved in the nutrient fluid perfusing the hippocampous slice. The steroid in the perfusion will influence the whole slice including the synapse under investigation.

A short description of assay [2]: Steroids tested by the inventors as agonist, blocker or antagonist to the sedative steroids (method not given).
Assay [3] relates to Sprague-Dawley rats. The assay can be described thus: EEG-threshold method for deep anaesthesia ("silent second"), continuous intravenous infusion. To be noted: for Intercept of regression line (anaesthetic steroid dosage needed for SS at zero 3beta-hydroxy-5alpha-pregnan-20-one): FIG. 1 / FIG. 2; for Optimal dose rate (gives the lowest threshold dose): rats. It counts as in vivo, rat. Here is the method: The present invention is based on experiments in vivo, performed to confirm the blocking effect of 3beta-hydroxy-5alpha-pregnan-20-one on 3alpha-hydroxy-5alpha-pregnan-20-one in a preliminary study. 3alpha-hydroxy-5alpha-pregnan-20-one dissolved in 20% cyclodextrin was given to male Sprague-Dawley rats in an i.v. infusion dose rate of close to 3.0 mg/kg/min. This is the optimal dose rate for 3alpha-hydroxy-5alpha-pregnan-20-one. 3alpha-hydroxy-5alpha-pregnan-20-one and 3beta-hydroxy-5alpha-pregnan-20-one were dissolved, 50/50%, in water solution containing cyclodextrin. The control solution only contained 3alpha-hydroxy-5alpha-pregnan-20-one. The amount of 3alpha-hydroxy-5alpha-pregnan-20-one needed to obtain silent second, the anaesthesia criteria, was 21% higher with the combined solution compared to 3alpha-hydroxy-5alpha-pregnan-20-one alone, showing an interaction between 3alpha-hydroxy-5alpha-pregnan-20-one and 3beta-hydroxy-5alpha-pregnan-20-one in vivo. There was no overlap between the effect of the combined solution and control solution of 3alpha-hydroxy-5alpha-pregnan-20-one.
In further studies, performed after the priority date, the present invention was tested in in vivo experiments in which the blocking effect of 3beta-hydroxy-5alpha-pregnan-20-one was assessed by investigating the dosage of 3alpha-hydroxy-5alpha-pregnan-20-one and 3alpha-hydroxy-5beta-pregnan-20-one needed to induce a deep anaesthesia in the presence of increasing amounts of 3beta-hydroxy-5alpha-pregnan-20-one. An EEG-threshold method for deep anaesthesia was used. The method is developed to determine the sensitivity in the central nervous system (CNS) to the depressant drugs, mainly intravenous anaesthetic agents. Drugs are administered into the tail vein by continuous intravenous infusion while an Electro-Encephalo-Gram (EEG) is recorded. The infusion was immediately stopped and infusion time recorded, when the first burst of EEG suppression for one second or more is noted, the threshold criterion for a deep anaethesia, the “silent second” (SS). The appearance of SS is considered as a deeper anaesthesia state than the loss of righting reflex. The threshold dose (mg/kg) is calculated by multiplying the time to obtain SS with the dose rate (mg/kg/min). The threshold doses of the tested drug indicates its relative anaesthetic potency. The threshold doses are also related to CNS excitability. An increase or decrease in CNS excitability can be measured by a change in threshold doses of anesthetics. The dose rates which give the lowest threshold dose is considered as the optimal dose rate. The optimal dose rate and anaesthetic threshold dosage for 3alpha-hydroxy-5alpha-pregnan-20-one and […] at several times and the optimal dose rate is close to 3.0 mg/kg/min for both 3alpha-hydroxy-5alpha-pregnan-20-one and 3alpha-hydroxy-5beta-pregnan-20-one. The anaesthetic threshold dosage is for 3alpha-hydroxy-5alpha-pregnan-20-one between 6.5 to 8.0 mg/kg and for 3alpha-hydroxy-5beta-pregnan-20-one between 9 to 11 mg/kg depending on the age of the rats and the solvent used.
3alpha-hydroxy-5alpha-pregnan-20-one and […] dissolved in 20% cyclodextrin were given to Sprague-Dawley rats in an intravenous infusion at the optimal dose rate. 3beta-hydroxy-5alpha-pregnan-20-one was also dissolved in a 20% cyclodextrin solution and given simultaneously in a dosage 100%, 123% and 143% of the 3alpha-hydroxy-5alpha-pregnan-20-one dosage (n=11) and 70%, 100%, 123% and 143% of the 3alpha-hydroxy-5beta-pregnan-20-one dosage (n=16). […] The correlation between the dosage 3beta-hydroxy-5alpha-pregnan-20-one given and the dosage of 3alpha-hydroxy-5alpha-pregnan-20-one and 3alpha-hydroxy-5beta-pregnan-20-one needed to obtain the criterion of SS is highly significant (FIG. 1 and FIG. 2).

The test system of assay [4] is Sprague-Dawley rats. As to conditions: a result found by several groups and described in earlier reports; cited from earlier work.

Entries after “also recorded” stand apart in the source; their conditions may differ.

Take 3beta-hydroxy-pregnenolone: in assay [1] (local application), the “Blocking of the effect of 3alpha-hydroxy-5alpha-pregnan-20-one on the signal/POPSP” value is given as “no blocking effect” and the “Blocking of the effect of 3alpha-hydroxy-5beta-pregnan-20-one on the signal/POPSP” value is given as “no blocking effect”. The “Effect as agonist, blocker or antagonist to the sedative steroids” value in assay [2] is recorded as “no effect either as an agonist or blocker or antagonist”.

On to `CC(=O)[C@H]1CC[C@H]2[C@@H]3CC[C@H]4C[C@H](O)CC[C@]4(C)[C@H]3CC[C@]12C` [3alpha-hydroxy-5alpha-pregnan-20-one, reference compound], for which the “Intercept of regression line (anaesthetic steroid dosage needed for SS at zero 3beta-hydroxy-5alpha-pregnan-20-one)” value in the assay on Sprague-Dawley rats [3] is given as 6.9 mg/kg. Further, the “Optimal dose rate (gives the lowest threshold dose)” value with Sprague-Dawley rats [3] (i.v. infusion) is roughly 3.0 mg/kg/min. In assay [1] (local application, FIG. 3), the “Reduction of the amplitude of the induced population spike” value stood at 45%. The “Effect on the signal transmitted over the synapse / amplitude of the POPSP” value in assay [1] (local application) is given as “inhibition of the signal transmitted over the synapse”.

Regarding `CC(=O)[C@H]1CC[C@H]2[C@@H]3CC[C@@H]4C[C@H](O)CC[C@]4(C)[C@H]3CC[C@]12C` [3alpha-hydroxy-5beta-pregnan-20-one, reference compound], the “Intercept of regression line (anaesthetic steroid dosage needed for SS at zero 3beta-hydroxy-5alpha-pregnan-20-one)” value in the assay on Sprague-Dawley rats [3] came to 9.1 mg/kg. Moreover, the “Optimal dose rate (gives the lowest threshold dose)” value in the assay on Sprague-Dawley rats [3] (i.v. infusion) is roughly 3.0 mg/kg/min. Besides, the “Effect on the signal transmitted over the synapse / amplitude of the POPSP” value in assay [1] (local application) was “inhibition of the signal transmitted over the synapse; also recorded: inhibits the amplitude of the POPSP”.

On to `CC(=O)[C@H]1CC[C@H]2[C@@H]3CC[C@H]4C[C@@H](O)CC[C@]4(C)[C@H]3CC[C@]12C` [3beta-hydroxy-5alpha-pregnan-20-one], for which, in the assay with Sprague-Dawley rats [3] (FIG. 1, p<0.001, df=9), the “Correlation coefficient r: 3alpha-hydroxy-5alpha-pregnan-20-one dosage needed for SS vs 3beta-hydroxy-5alpha-pregnan-20-one dosage” value is listed as 0.90. For the same molecule, the “Slope of regression line: 3alpha-hydroxy-5alpha-pregnan-20-one dosage needed for SS vs 3beta-hydroxy-5alpha-pregnan-20-one dosage” value in the assay with Sprague-Dawley rats [3] (FIG. 1, slope p<0.001 different from 0) stood at 0.43. In addition, the “Correlation coefficient r: 3alpha-hydroxy-5beta-pregnan-20-one dosage needed for SS vs 3beta-hydroxy-5alpha-pregnan-20-one dosage” value with Sprague-Dawley rats [3] (FIG. 2, P<0.001, df=14) turned out to be 0.78. The “Slope of regression line: 3alpha-hydroxy-5beta-pregnan-20-one dosage needed for SS vs 3beta-hydroxy-5alpha-pregnan-20-one dosage” value in the assay on Sprague-Dawley rats [3] (FIG. 2, slope p<0.001 different from 0) is on record as 0.46. Besides, the “Effect on the anaesthetic effect of 3alpha-hydroxy-5beta-pregnan-20-one in vivo” value with Sprague-Dawley rats [3] (given simultaneously i.v. at 70%, 100%, 123% and 143% of the 3alpha-hydroxy-5beta-pregnan-20-one dosage, dose dependent) was “can block the effect; also recorded: decreased the anaesthetic potency”. Further, the “Effect on the anaesthetic/CNS depressing effect of 3alpha-hydroxy-5alpha-pregnan-20-one in vivo” value in the assay with Sprague-Dawley rats [3] (given simultaneously i.v. at 100%, 123% and 143% of the 3alpha-hydroxy-5alpha-pregnan-20-one dosage, dose dependent) was “can block the effect; also recorded: decreased the anaesthetic potency”. The “Amount of 3alpha-hydroxy-5alpha-pregnan-20-one needed to obtain silent second, higher with combined solution compared to 3alpha-hydroxy-5alpha-pregnan-20-one alone” value in the assay on Sprague-Dawley rats [3] (preliminary study, 50/50% with 3alpha-hydroxy-5alpha-pregnan-20-one in cyclodextrin solution, i.v. infusion, male Sprague-Dawley rats) is reported as 21%. In addition, the “Effect by itself on signal transmission over the synapse” value in assay [1] (alone, up to micromolar range, not different from vehicle) is recorded as “no effect on signal transmission; also recorded: no effect by itself”. Further, in assay [1] (local application), the “Blocking of the effect of 3alpha-hydroxy-5alpha-pregnan-20-one on the signal/POPSP” value was “can be blocked; also recorded: totally inhibited” and the “Blocking of the effect of 3alpha-hydroxy-5beta-pregnan-20-one on the signal/POPSP” value is given as “can be blocked; also recorded: can inhibit the effect”. Moreover, in assay [1] (perfusion of whole slice), the “Blocking of the effect of 3alpha-hydroxy-5alpha-pregnan-20-one when perfused to the whole hippocampus slice” value is recorded as “same blocking effect”. Also, the “Interaction with Muscimol (an agonist to GABA) on the GABA-A receptor” value in assay [1] (together with Muscimol, FIG. 5) is given as “does not interact with Muscimol”. In addition, the “Effect by itself on CNS activities” value with Sprague-Dawley rats [4] was “no effect on CNS activities”.

On to `CC(=O)[C@H]1CC[C@H]2[C@@H]3CC[C@@H]4C[C@@H](O)CC[C@]4(C)[C@H]3CC[C@]12C` [3beta-hydroxy-5beta-pregnan-20-one], for which, in assay [1] (local application), the “Blocking of the effect of 3alpha-hydroxy-5alpha-pregnan-20-one on the signal/POPSP” value was “no blocking effect” and the “Blocking of the effect of 3alpha-hydroxy-5beta-pregnan-20-one on the signal/POPSP” value is “no blocking effect”. In addition, the “Effect as agonist, blocker or antagonist to the sedative steroids” value in assay [2] was “no effect either as a blocker or as an antagonist”.

As for `CC(=O)C1CCC2C3CC=C4CC(OS(=O)(=O)O)CCC4(C)C3CCC12C` (stereo not shown) [Pregnenolone sulphate], the “Blocking of the effect of 3alpha-hydroxy-5beta-pregnan-20-one on the signal/POPSP” value in assay [1] (local application) was “could neither block”. Further, the “Own effect on the signal in high micromolar concentrations” value in assay [1] (high micromolar concentrations) is reported as “excitatory”.
